Source: patent US20060104978A1, “Methods and compositions for PDGF-C activation and inhibition” (LUDWIG INSTITUTE FOR CANCER RESEARCH, priority 2003, published 2006)

Experiments:
tPA [1] = assay: Ni-NTA pull-down of purified tPA by His6-tagged recombinant proteins; format: binding, human; conditions: Ni-NTA beads coated with His6-tagged protein, 1 μg purified tPA, 2 hours room temperature, eluted with imidazole
Protocol: The possibility of a direct protein-protein interaction between tPA and latent PDGF-CC was explored by developing a pull-down assay. Ni-NTA beads were allowed to bind recombinant His6-tagged latent PDGF-CC or PDGF-DD, and purified tPA was added and incubated. Following extensive washings, bound proteins were subsequently eluted with an imidazole-containing buffer, and the eluates were analyzed by immunoblotting using specific antibodies.
To determine a direct protein-protein interaction between tPA and PDGF-CC, His6-tagged recombinant protein species were bound to Ni-NTA-agarose (Qiagen) and then incubated with 1 μg of purified tPA for 2 hours at room temperature. Uncoated and PDGF-DD coated Ni-NTA beads were used as controls. The beads were washed thoroughly, and His6-tagged proteins were specifically eluted with 400 mM imidazole. Eluted proteins were analyzed by SDS-PAGE under reducing conditions and immunoblotted with antibodies against human tPA (see above). The membranes were subsequently stripped and reprobed with specific antibodies.
Target sequence in this assay (P00750 36-562): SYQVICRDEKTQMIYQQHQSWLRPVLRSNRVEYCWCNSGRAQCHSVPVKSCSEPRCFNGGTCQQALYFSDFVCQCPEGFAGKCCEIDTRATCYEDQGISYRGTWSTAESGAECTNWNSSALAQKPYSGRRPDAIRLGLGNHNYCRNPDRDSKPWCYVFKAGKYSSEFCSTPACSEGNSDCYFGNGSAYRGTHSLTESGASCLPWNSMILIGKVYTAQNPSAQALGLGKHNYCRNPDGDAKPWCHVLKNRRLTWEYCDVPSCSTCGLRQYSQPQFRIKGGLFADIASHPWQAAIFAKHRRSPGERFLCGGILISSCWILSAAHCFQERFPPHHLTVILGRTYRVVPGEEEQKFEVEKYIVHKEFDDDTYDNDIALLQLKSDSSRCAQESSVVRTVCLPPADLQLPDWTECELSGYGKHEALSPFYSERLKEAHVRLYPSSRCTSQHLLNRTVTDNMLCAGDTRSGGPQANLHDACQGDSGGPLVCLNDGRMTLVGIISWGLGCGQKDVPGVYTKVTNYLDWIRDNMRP

tPA [2] = assay: Processing of endogenous PDGF-CC by growing AG1523 cells with tPA inhibitors in serum-free medium; format: cell-based, human; conditions: tPA-STOP 3.5-35 μM, aprotinin 100 μM in serum-free medium of AG1523 cells; immunoblot
Protocol: (§1) All protease inhibitors were purchased from Sigma and the concentrations used were as follows: AEBSF 1 mM, bestatin 100 μM, leupeptin 100 μM, pepstatin A 10 μM, E64 100 μM, aprotinin 100 μM (˜3 TIU), EDTA 50 mM, and phosphoramidon 100 μM. The protease inhibitors were preincubated with conditioned AG1523 medium at room temperature for 30 min, and then incubated with recombinant PDGF-CC (ratio 10:2) at 37° C. overnight. Recombinant PDGF-CC species were analyzed by immunoblotting as above. To determine whether tPA is the major proteolytic enzyme responsible for the PDGF-CC processing in AG1523 conditioned medium, AG1523 cells were cultured in serum-free medium, with or without the addition of a synthetic tPA inhibitor tPA-STOP™ (3.5-35 μM, #544, American Diagnostica Inc.) or 100 μM aprotinin as a positive control. The conditioned serum-free medium was collected, and proteins were precipitated before SDS-PAGE and immunoblotting using antibodies against PDGF-C (see above).

[3] = system: secreted protease(s) present in the conditioned media from AG1523 cells; assay: In vitro cleavage of recombinant latent PDGF-CC by AG1523 conditioned medium, protease inhibitor profile; format: biochemical, human; conditions: inhibitor preincubated 30 min with AG1523 medium, then recombinant PDGF-CC 37° C. overnight; AEBSF 1 mM, leupeptin 100 μM, aprotinin 100 μM; immunoblot
Protocol: In an in vitro assay, the properties of the enzyme(s) involved in cleavage and activation of PDGF-CC were studied by mixing serum-free conditioned media from AG1523 cells with His6-tagged recombinant full-length PDGF-CC.
The class of enzyme(s) responsible for cleavage and activation of latent PDGF-CC was established by generating an enzyme inhibitor profile of the enzymatic activity (FIG. 1E). Eight different protease inhibitors (see FIG. 1F) were separately preincubated with conditioned media from AG1523 cells, and then incubated with His6-tagged recombinant full-length PDGF-CC.
as §1

Molecule | binding of tPA in pull-down (tPA [1]) | inhibition of processing of endogenous full-length PDGF-CC (tPA [2]) | inhibition of proteolytic cleavage of latent PDGF-CC [3]
PDGF-DD: recombinant His6-tagged latent full-length PDGF-DD | failed to do so |  | 
aprotinin |  | efficiently inhibited processing of latent PDGF-CC | inhibited the proteolytic cleavage of latent PDGF-CC
NCCc1ccc(S(=O)(=O)F)cc1 [AEBSF] |  |  | inhibited the proteolytic cleavage of latent PDGF-CC
Cl.Cl.N=C(N)c1ccc(C=C2CCCCC(=Cc3ccc(C(=N)N)cc3)C2=O)cc1 [tPA-STOP™] |  | in a dose-dependent way, prevented processing of full-length PDGF-CC | 
CC(=O)N[C@@H](CC(C)C)C(=O)N[C@@H](CC(C)C)C(=O)N[C@H](C=O)CCCNC(=N)N [leupeptin] |  |  | inhibited the proteolytic cleavage of latent PDGF-CC
